Test results published in the NIST ThermoML archive (doi:10.1021/je100832h).

Assays:
[1] = Liquid; for mass density: 101.32 kPa, Vibrating tube method
[2] = excess molar enthalpy (molar enthalpy of mixing); xn = mol fraction of the nth substance listed; settings: 291.15 K, 101 kPa, Liquid, Calvet calorimetry
[3] = xn = mol fraction of the nth substance listed; settings: 101.32 kPa, Liquid, Vibrating tube method

CCCCCCCCC [nonane]
[1]
Settings	mass density [kg/m3]
291.15 K	719.2
298.15 K	713.85
318.15 K	698.09
328.15 K	690.4

[1], Ebulliometric method (Recirculating still)
Settings	vapor or sublimation pressure [kPa]
365.3 K	15.58
369.25 K	18.07
372.81 K	20.58
376.46 K	23.49
379.71 K	26.35
382.25 K	28.78
384.65 K	31.22
387.02 K	33.8
389.45 K	36.62
391.8 K	39.52
393.48 K	41.74
395.26 K	44.15
396.96 K	46.56
398.71 K	49.15
400.61 K	52.12
402.01 K	54.42
403.31 K	56.55
404.73 K	59.01
406.27 K	61.77
407.78 K	64.58
408.93 K	66.76
410.11 K	69.09
411.32 K	71.53
412.52 K	74.01
413.68 K	76.48
414.83 K	79.03
415.9 K	81.41
417.22 K	84.44
418.24 K	86.85
419.28 K	89.41
420.5 K	92.43
421.62 K	95.25
422.83 K	98.4
423.2 K	99.35
423.61 K	100.44
423.94 K	101.32
424.92 K	104
425.83 K	106.5
426.71 K	108.99
427.6 K	111.54
428.4 K	113.88
429.26 K	116.44
430.22 K	119.35
431.09 K	122.04
432.04 K	124.99
432.94 K	127.82
433.74 K	130.52
434.68 K	133.6
435.58 K	136.62
436.31 K	139.12
437.11 K	141.9
437.95 K	144.81
438.67 K	147.42
439.45 K	150.23
440.11 K	152.67
440.76 K	155.08
441.41 K	157.53
442.05 K	159.98
442.77 K	162.8
443.49 K	165.61
444.23 K	168.53
444.93 K	171.39
445.49 K	173.63
446.19 K	176.52
446.75 K	178.85
447.44 K	181.82
448.07 K	184.55
448.61 K	186.86
449.27 K	189.75
449.81 K	192
450.56 K	195.54

CCCCCCCC [octane]
[1]
Settings	mass density [kg/m3]
291.15 K	704.13
298.15 K	698.6
318.15 K	682.16
328.15 K	674.15

[1], Ebulliometric method (Recirculating still)
Settings	vapor or sublimation pressure [kPa]
350.64 K	21.09
353.05 K	23.14
355.76 K	25.56
356.97 K	26.7
358.82 K	28.55
361.59 K	31.58
363.86 K	34.16
365.82 K	36.53
367.65 K	38.88
369.09 K	40.82
370.77 K	43.19
372.39 K	45.57
374.01 K	48.04
375.61 K	50.59
377 K	52.9
378.25 K	55.02
380.03 K	58.2
381.34 K	60.63
382.42 K	62.68
383.64 K	65.07
384.76 K	67.34
386.29 K	70.52
387.45 K	73.02
388.55 K	75.43
389.65 K	77.94
390.56 K	80.05
391.6 K	82.51
392.6 K	84.94
393.47 K	87.09
394.37 K	89.39
395.14 K	91.38
396.04 K	93.64
396.95 K	96.14
397.9 K	98.73
398.19 K	99.59
398.59 K	100.68
398.83 K	101.32
399.61 K	103.61
400.53 K	106.23
401.23 K	108.3
402.03 K	110.71
402.81 K	113.09
403.32 K	114.65
403.81 K	116.17
404.1 K	117.1
404.79 K	119.25
405.51 K	121.6
406.27 K	124.1
407.03 K	126.61
407.89 K	129.5
408.75 K	132.46
409.62 K	135.53
410.15 K	137.42
410.83 K	139.87
422.1 K	185.56
422.64 K	188.02
423.26 K	190.85
423.76 K	193.15
424.15 K	195.02
424.76 K	197.87
425.2 K	199.97

CCCCC [pentane]
[1]
Settings	mass density [kg/m3]	vapor or sublimation pressure [kPa]
291.15 K	628.22	–
298.15 K	621.35	–
309.3 K	–	101.32

CCCCC [pentane] + CCOC(C)=O
[2]
Settings	excess molar enthalpy [kcal/mol]
x2 = 0.0628	0.0777
x2 = 0.1353	0.139
x2 = 0.2024	0.194
x2 = 0.2623	0.232
x2 = 0.3345	0.274
x2 = 0.4047	0.295
x2 = 0.4549	0.305
x2 = 0.514	0.307
x2 = 0.5664	0.3
x2 = 0.6434	0.283
x2 = 0.7049	0.256
x2 = 0.7712	0.221
x2 = 0.8427	0.175
x2 = 0.9116	0.118
x2 = 0.9483	0.065

mass density [kg/m3], [3]
Settings	291.15 K	298.15 K
x2 = 0	628.22	621.35
x2 = 0.0126	630.77	–
x2 = 0.026	–	626.34
x2 = 0.0577	640.44	–
x2 = 0.0607	–	633.6
x2 = 0.0897	–	639.94
x2 = 0.0922	648.09	–
x2 = 0.1609	–	655.94
x2 = 0.1813	668.69	–
x2 = 0.2315	–	672.51
x2 = 0.2507	685.25	–
x2 = 0.3028	–	690.12
x2 = 0.3232	703.25	–
x2 = 0.3576	–	703.99
x2 = 0.3916	721.01	–
x2 = 0.4301	–	722.92
x2 = 0.4566	738.23	–
x2 = 0.4703	–	733.71
x2 = 0.5276	–	749.44
x2 = 0.5296	758.09	–
x2 = 0.5916	775.48	–
x2 = 0.6517	792.81	–
x2 = 0.6553	–	785.76
x2 = 0.7126	–	802.69
x2 = 0.7164	812.13	–
x2 = 0.7725	–	820.79
x2 = 0.7788	831.21	–
x2 = 0.8245	–	836.93
x2 = 0.8582	856.32	–
x2 = 0.8825	–	855.3
x2 = 0.8961	868.57	–
x2 = 0.9342	–	872.31
x2 = 0.9693	892.55	–
x2 = 0.9896	–	890.79
